Results taken from patent US20050250819A1 (priority 2004, published 2005).

What was measured:
Type in all cases: cell-based
[1] = system: Type III protein secretion of the chimeric SopE‘-’Bla polypeptide (SPI1 type III protein secretion system); assay: Primary assay: Type III protein secretion of the chimeric SopE'-'Bla polypeptide by Salmonella enterica; conditions: read-out: SopE IC50(μM)
Procedure, shortened: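 Salmonella enterica grown under SPI1-inducing conditions expressed a SopE‘-’Bla fusion, with TEM-1 β-lactamase lacking its signal peptide, with or without test compounds. Nitrocefin added to the cultures was hydrolysed only by the secreted fusion, so the colorimetric signal reports type III secretion, and inhibitors lower it.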

[2] = system: Type III-dependent secretion of ExoU by P. aeruginosa PA103; assay: Tertiary assay: Type III-dependent secretion of ExoU by P. aeruginosa PA103; conditions: Pseudomonas aeruginosa, ExoU secreted into extracellular medium
Source text: Tertiary assay: inhibition of Type III protein secretion of effectors from a Pseudomonas aeruginosa system. Type III protein secretion is used by P. aeruginosa to secrete several essential virulence determinants. One effector of the type III protein secretion system of P. aeruginosa PA103 is the virulence determinants ExoU.
The amount of Type III-dependent secretion of ExoU by P. aeruginosa PA103 can be determined in a cell-based assay by quantification of the 73.9 kDa ExoU protein secreted into the extracellular medium. Such quantitation can be achieved by growing strain PA103 in a deferrated medium in the presence of nitrilotriacetic acid (an inducer of Type III protein secretion in P. aeruginosa) and either in the presence or absence of putative inhibitors. After a prolonged growth period, the cells are sedimented and the supernatants concentrated by ammonium sulfate precipitation. The proteins in the resuspended pellets are separated by electrophoresis on SDS-polyacrylamide gels. After staining gels with Colloidal Blue™, the 73.9 kDa ExoU band is quantitated by scanning through an imager. The effects of inhibitors on the intensity of the ExoU band may be measured relative to that of untreated controls.

[3] = system: Type III-dependent secretion of SipB (SPI1 type III protein secretion system); assay: Secondary assay: Type III-dependent protein secretion of the SipB polypeptide by S. enterica; conditions: Salmonella enterica, read-out: SipB IC50(μM)
Method: Secondary assay: Type III-dependent protein secretion of the SipB polypeptide by S. enterica. The SipB protein of S. enterica is another effector of the SPI1 type III protein secretion system from S. enterica. In this cell-based procedure, the Type III-dependent secretion of SipB from the bacterial cytoplasm to the extracellular medium was measured through its reactivity with a cognate mouse monoclonal.
Salmonella enterica cells growing either in the presence or in the absence of inhibitors are induced for the production of SipB. Following an established period of growth the cells are sedimented and the amount of SipB present in the supernatant is quantified with a scanning imager following application of immunoblot techniques. Detection may employ an anti-SipB mouse monoclonal antibody (e.g., obtained from Jorge Galan, SUNY at Stony Brook, N.Y.) followed by treatment with commercially available sheep anti-mouse polyclonal antibody conjugated with horseradish peroxidase. Thereafter the membrane is treated with a peroxidase chemiluminescent substrate and exposed to film for an appropriate exposure time. Inhibition may be measured relative to untreated controls.

Compound: O=C(N[C@@H](Cc1ccc(Cl)cc1)C(=O)O)/C(=C\c1cccc(C(F)(F)F)c1)NC(=O)c1ccc(Oc2ccccc2)cc1 [Compound 47, (S)-3-(4-Chlorophenyl)-2-[2-(4-phenoxybenzoylamino)-3-(3-trifluoromethyl-phenyl)acryloylamino]propionic acid]
- IC50 [1]: 12.4 µM
- IC50 [2]: 35.1 µM

Compound: O=C(N[C@H](CO)CSCc1ccccc1)/C(=C\c1ccc(-c2ccccc2)cc1)NC(=O)c1ccc(C(F)(F)F)cc1 [Compound 14]
- IC50 [3]: 77.3 µM
